US11590139B2, “Substituted aminopurine compounds, compositions thereof, and methods of treatment therewith” (Signal Pharmaceuticals, LLC, priority 2014, dated 2023)

test system: Lox-IMVI melanoma cell line; test: Lox-IMVI anti-proliferative assay (growth inhibition, Cell Titer-Glo); assay type: cell-based, human; details: Homo sapiens; IC50 activity level in the cell-based Lox-IMVI anti-proliferative assay; read-out: Activity
Method in brief: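 Lox-IMVI cells in RPMI+10% FBS exposed 72 h at 37 °C to 10-point, 3-fold dilutions (0.5 nM–10 μM; 0.2% DMSO final), in duplicate. Viability by Cell Titer-Glo luminescence, with a t0 cell-number reading; data as % of DMSO control; IC50 from a four-parameter logistic fit.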

IC50 [µM]	Structure (SMILES)
> 1	NC(=O)[C@H]1CC[C@@H](n2c(Nc3c(F)cccc3F)nc3cnc(N[C@H]4CCOC[C@@H]4F)nc32)CC1 [Example 247, (1R,4s)-4-(8-(2,6-difluorophenylamino)-2-((3R,4S)-3-fluorotetrahydro-2H-pyran-4-ylamino)-9H-purin-9-yl)cyclohexanecarboxamide]
0.5 to 1	NC(=O)[C@H]1CC[C@@H](n2c(Nc3c(Cl)cc(Cl)cc3Cl)nc3cnc(N[C@H]4C[C@H](O)C4)nc32)CC1 [Example 300, (1s,4s)-4-(2-((1r,3r)-3-hydroxycyclobutylamino)-8-(2,4,6-trichlorophenylamino)-9H-purin-9-yl)cyclohexanecarboxamide]
0.5 to 1	NC(=O)[C@H]1CC[C@@H](n2c(Nc3c(F)cc(Cl)cc3F)nc3cnc(N[C@H]4CCOC4)nc32)CC1 [Example 242, (1R,4s)-4-(8-(4-chloro-2,6-difluorophenylamino)-2-((S)-tetrahydrofuran-3-ylamino)-9H-purin-9-yl)cyclohexanecarboxamide]
0.5 to 1	C[C@@H](CO)Nc1ncc2nc(Nc3c(F)cc(Cl)cc3F)n([C@H]3CC[C@@H](C(N)=O)CC3)c2n1 [Example 169, (1R,4s)-4-(8-(4-chloro-2,6-difluorophenylamino)-2-((S)-1-hydroxypropan-2-ylamino)-9H-purin-9-yl)cyclohexanecarboxamide]
0.5 to 1	NC(=O)[C@H]1CC[C@@H](n2c(Nc3c(Cl)cc(Cl)cc3Cl)nc3cnc(N[C@@H]4CC[C@H](O)C4)nc32)CC1 [Example 333, (1S,4s)-4-(2-((1R,3S)-3-hydroxycyclopentylamino)-8-(2,4,6-trichlorophenylamino)-9H-purin-9-yl)cyclohexanecarboxamide]
> 1	NC(=O)[C@H]1CC[C@@H](n2c(Nc3c(F)cc(F)cc3F)nc3cnc(N[C@H]4CC[C@H](O)C4)nc32)CC1 [Example 331, (1R,4s)-4-(2-((1S,3S)-3-hydroxycyclopentylamino)-8-(2,4,6-trifluorophenylamino)-9H-purin-9-yl)cyclohexanecarboxamide]
0.5 to 1	NC(=O)[C@H]1CC[C@@H](n2c(Nc3c(Cl)cc(Cl)cc3Cl)nc3cnc(NCC4CCC4)nc32)CC1 [Example 110, (1s,4s)-4-(2-(cyclobutylmethylamino)-8-(2,4,6-trichlorophenylamino)-9H-purin-9-yl)cyclohexanecarboxamide]
> 1	CC[C@@H](CO)Nc1ncc2nc(Nc3c(Cl)cc(F)cc3Cl)n([C@H]3CC[C@@H](C(N)=O)CC3)c2n1 [Example 145, (1R,4s)-4-(8-(2,6-dichloro-4-fluorophenylamino)-2-((S)-1-hydroxybutan-2-ylamino)-9H-purin-9-yl)cyclohexanecarboxamide]
> 1	NC(=O)[C@H]1CC[C@@H](n2c(Nc3c(Cl)cc(Cl)cc3Cl)nc3cnc(NCC(F)(F)F)nc32)CC1 [Example 109, (1s,4s)-4-(8-(2,4,6-trichlorophenylamino)-2-(2,2,2-trifluoroethylamino)-9H-purin-9-yl)cyclohexanecarboxamide]

same assay, conditions: Homo sapiens; Lox-IMVI anti-proliferative assay, IC50 activity level; read-out: Activity

IC50 [µM]	Structure (SMILES)
< 0.25	C[C@]1(C(N)=O)CC[C@@H](n2c(Nc3c(Cl)cc(C#N)cc3Cl)nc3cnc(NC4CCCC4)nc32)CC1 [Example 561, (1s,4s)-4-(2-(cyclopentylamino)-8-(2,6-dichloro-4-cyanophenylamino)-9H-purin-9-yl)-1-methylcyclohexanecarboxamide]
> 1	C[C@]1(C(N)=O)CC[C@H](n2c(Nc3c(F)cc(F)cc3F)nc3cnc(NC4CCCC4)nc32)CC1 [Example 494, (1r,4r)-4-(2-(cyclopentylamino)-8-(2,4,6-trifluorophenylamino)-9H-purin-9-yl)-1-methylcyclohexanecarboxamide]
< 0.25	C[C@]1(C(N)=O)CC[C@@H](n2c(Nc3c(Cl)cc(Cl)cc3Cl)nc3cnc(NC4CCOCC4)nc32)CC1 [Example 522, (1s,4s)-1-methyl-4-(2-(tetrahydro-2H-pyran-4-ylamino)-8-(2,4,6-trichlorophenylamino)-9H-purin-9-yl)cyclohexanecarboxamide]
0.5 to 1	C[C@]1(C(N)=O)CC[C@H](n2c(Nc3c(Cl)cc(C#N)cc3Cl)nc3cnc(NC4CCOCC4)nc32)CC1 [Example 475, (1r,4r)-4-(8-(2,6-dichloro-4-cyanophenylamino)-2-(tetrahydro-2H-pyran-4-ylamino)-9H-purin-9-yl)-1-methylcyclohexanecarboxamide]

Further lines, the compound ahead of its results:

Structure (SMILES)	IC50 [µM]
NC(=O)[C@H]1CC[C@@H](n2c(Nc3c(Cl)cc(Cl)cc3Cl)nc3cnc(N[C@@H]4CCCC[C@H]4O)nc32)CC1 [Example 468, (1S,4s)-4-(2-((1R,2R)-2-hydroxycyclohexylamino)-8-(2,4,6-trichlorophenylamino)-9H-purin-9-yl)cyclohexanecarboxamide]	> 1
NC(=O)[C@H]1CC[C@@H](n2c(Nc3c(F)cc(Cl)cc3F)nc3cnc(N[C@@H]4CCC[C@@H](O)C4)nc32)CC1 [Example 421, (1S,4s)-4-(8-(4-chloro-2,6-difluorophenylamino)-2-((1R,3R)-3-hydroxycyclohexylamino)-9H-purin-9-yl)cyclohexanecarboxamide]	> 1

same assay, conditions: Homo sapiens; Lox-IMVI melanoma cell line, anti-proliferative assay; read-out: Activity (IC50 activity level)

IC50 [µM]	Structure (SMILES)
< 0.25	C[C@]1(C(N)=O)CC[C@@H](n2c(Nc3c(F)cc(Cl)cc3Cl)nc3cnc(NC4CC(F)(F)C4)nc32)CC1 [Example 651, (1s,4s)-4-(8-(2,4-dichloro-6-fluorophenylamino)-2-(3,3-difluorocyclobutylamino)-9H-purin-9-yl)-1-methylcyclohexanecarboxamide]
< 0.25	C[C@@H]1COCC[C@H]1Nc1ncc2nc(Nc3c(F)cc(Cl)cc3F)n([C@H]3CC[C@@](C)(C(N)=O)CC3)c2n1 [Example 722, (1S,4s)-4-(8-(4-chloro-2,6-difluorophenylamino)-2-((3S,4R)-3-methyltetrahydro-2H-pyran-4-ylamino)-9H-purin-9-yl)-1-methylcyclohexanecarboxamide]

The next lines start with the compound.

Structure (SMILES)	IC50 [µM]
CC(C)OC(=O)N1CCC[C@@H](Nc2ncc3nc(Nc4c(F)cc(F)cc4F)n([C@H]4CC[C@@H](C(N)=O)CC4)c3n2)C1 [Example 772, (R)-isopropyl 3-(9-((1s,4S)-4-carbamoylcyclohexyl)-8-(2,4,6-trifluorophenylamino)-9H-purin-2-ylamino)piperidine-1-carboxylate]	> 1
NC(=O)[C@H]1CC[C@@H](n2c(Nc3c(F)cc(F)cc3Cl)nc3cnc(NC[C@@H]4CCCC[C@@H]4O)nc32)CC1 [Example 653, (1R,4s)-4-(8-(2-chloro-4,6-difluorophenylamino)-2-(((1S,2S)-2-hydroxycyclohexyl)methylamino)-9H-purin-9-yl)cyclohexanecarboxamide]	> 1
NC(=O)[C@H]1CC[C@@H](n2c(Nc3c(F)cc(Cl)cc3F)nc3cnc(N[C@@H]4CCCN(C(=O)Nc5ccccc5)C4)nc32)CC1 [Example 782, (R)-3-(9-((1s,4S)-4-carbamoylcyclohexyl)-8-(4-chloro-2,6-difluorophenylamino)-9H-purin-2-ylamino)-N-phenylpiperidine-1-carboxamide]	> 1
N#Cc1cc(F)c(Nc2nc3cnc(N[C@@H]4CCC(O)C4)nc3n2[C@H]2CC[C@@H](C(N)=O)CC2)c(Cl)c1 (stereo partly drawn) [Example 682, (1S,4s)-4-(8-(2-chloro-4-cyano-6-fluorophenylamino)-2-((1R,3R)-3-hydroxycyclopentylamino)-9H-purin-9-yl)cyclohexanecarboxamide]	< 0.25
